Test results reported in patent US10517889B2, “Modulators of SMAD7 expression” (Ionis Pharmaceuticals, Inc., priority 2017, dated 2019).
Strand notation (5' to 3'): a small letter for the sugar, then the base; units joined by * are phosphorothioate-linked, units joined directly phosphodiester-linked; [ ] holds rarer units or linkages, { } end groups; capitals alone tell only the bases. k = constrained ethyl (cEt); [5mC] = 5-methylcytosine; d = 2'-deoxy (DNA)

Tested on: human SMAD7 mRNA
Test: Antisense inhibition of human SMAD7 mRNA expression in Hep3B cells by 3-10-3 cEt gapmers, 10,000 nM, electroporation (Example 2)
Format: cell-based
Conditions: Hep3B cells, 10,000 nM antisense oligonucleotide, electroporation, approximately 24 hours, RT-PCR primer probe set RTS5062, relative to untreated control cells
Summary of the method: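 Hep3B cells (20,000 per well) were electroporated with 10,000 nM 16-mer 3-10-3 cEt gapmer (phosphorothioate, 5-methylcytosine). After about 24 h, SMAD7 mRNA was quantified by qRT-PCR with primer probe set RTS5062, normalised to RIBOGREEN total RNA, and expressed as percent inhibition versus untreated cells.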

| Substance | % Inhibition [%] |
| --- | --- |
| 799891 (antisense kA*kT*k[5mC]*dA*dT*dT*dA*dA*dG*d[5mC]*d[5mC]*dA*dA*kT*kT*kT) [compound 799891] | 0 |
| 799892 (antisense kG*k[5mC]*kA*dT*d[5mC]*dA*dT*dT*dA*dA*dG*d[5mC]*d[5mC]*kA*kA*kT) [compound 799892] | 54 |
| 799893 (antisense kA*kT*kA*d[5mC]*dA*dA*dA*d[5mC]*d[5mC]*dA*d[5mC]*dT*dG*k[5mC]*kA*kT) [compound 799893] | 0 |
| 799894 (antisense kT*k[5mC]*k[5mC]*d[5mC]*dA*dA*d[5mC]*dT*dG*dG*dG*d[5mC]*dA*kG*k[5mC]*kT) [compound 799894] | 2 |
| 799895 (antisense k[5mC]*kT*kG*dA*dG*dA*dG*dT*dG*dT*dA*dG*dG*kA*kG*kA) [compound 799895] | 50 |
| 799896 (antisense k[5mC]*kT*kT*dA*d[5mC]*d[5mC]*dT*d[5mC]*dA*d[5mC]*d[5mC]*d[5mC]*dA*k[5mC]*k[5mC]*kT) [compound 799896] | 36 |
| 799897 (antisense kT*k[5mC]*kT*d[5mC]*dT*dT*dA*d[5mC]*d[5mC]*dT*d[5mC]*dA*d[5mC]*k[5mC]*k[5mC]*kA) [compound 799897] | 27 |
| 799898 (antisense kG*kT*k[5mC]*dT*d[5mC]*dT*dT*dA*d[5mC]*d[5mC]*dT*d[5mC]*dA*k[5mC]*k[5mC]*k[5mC]) [compound 799898] | 37 |
| 799899 (antisense kA*kA*kG*dT*d[5mC]*dT*d[5mC]*dT*dT*dA*d[5mC]*d[5mC]*dT*k[5mC]*kA*k[5mC]) [compound 799899] | 33 |
| 799900 (antisense k[5mC]*kA*kA*dG*dT*d[5mC]*dT*d[5mC]*dT*dT*dA*d[5mC]*d[5mC]*kT*k[5mC]*kA) [compound 799900] | 51 |
| 799910 (antisense k[5mC]*k[5mC]*kA*dA*d[5mC]*dT*d[5mC]*d[5mC]*dA*dT*dT*d[5mC]*dA*kT*kA*kA) [compound 799910] | 36 |
| 799911 (antisense kA*kG*k[5mC]*d[5mC]*dA*dA*d[5mC]*dT*d[5mC]*d[5mC]*dA*dT*dT*k[5mC]*kA*kT) [compound 799911] | 0 |
| 799912 (antisense k[5mC]*kT*k[5mC]*dA*dG*dA*dG*dG*dA*dA*dG*dG*dG*kT*kG*kG) [compound 799912] | 22 |
| 799913 (antisense kG*kG*k[5mC]*d[5mC]*dT*d[5mC]*dA*dG*dA*dG*dG*dA*dA*kG*kG*kG) [compound 799913] | 18 |
| 799914 (antisense k[5mC]*kT*kG*dA*dG*dA*dG*dA*dG*dG*d[5mC]*d[5mC]*dT*k[5mC]*kA*kG) [compound 799914] | 24 |
| 799915 (antisense kG*k[5mC]*kT*dG*dA*d[5mC]*dG*d[5mC]*dG*dG*d[5mC]*dT*dT*k[5mC]*k[5mC]*kT) [compound 799915] | 52 |
| 799916 (antisense k[5mC]*kA*k[5mC]*dA*dA*dA*dT*d[5mC]*dA*dA*dA*dA*dG*k[5mC]*kT*k[5mC]) [compound 799916] | 47 |
| 799917 (antisense kT*kG*kG*dA*dG*dA*dA*dT*dG*dT*dA*dA*dT*kT*kG*kA) [compound 799917] | 17 |
| 799918 (antisense k[5mC]*kA*kT*dT*dT*dA*dT*d[5mC]*dT*d[5mC]*dG*d[5mC]*d[5mC]*kA*kT*kG) [compound 799918] | 16 |
| 799919 (antisense kT*k[5mC]*k[5mC]*dT*dA*dA*dG*dA*dG*d[5mC]*dA*dT*dT*kT*kA*kT) [compound 799919] | 0 |
| 799930 (antisense kT*k[5mC]*kT*dT*dT*dT*dA*dT*d[5mC]*dA*d[5mC]*dT*dG*kT*k[5mC]*kA) [compound 799930] | 8 |
| 799932 (antisense kT*k[5mC]*kA*dA*dG*dA*dG*dA*d[5mC]*dG*dG*dT*dG*kA*kG*k[5mC]) [compound 799932] | 0 |
| 799933 (antisense kT*kA*k[5mC]*dT*dA*dT*dT*d[5mC]*dA*dT*d[5mC]*dA*d[5mC]*k[5mC]*k[5mC]*kT) [compound 799933] | 22 |
| 799934 (antisense kA*k[5mC]*kT*dT*dT*dT*dT*dA*d[5mC]*dT*d[5mC]*dT*dG*kT*k[5mC]*kT) [compound 799934] | 61 |
| 799935 (antisense kA*kG*kA*dA*dA*dT*dG*dA*d[5mC]*dT*dT*dT*dT*kT*kA*k[5mC]) [compound 799935] | 42 |
| 799936 (antisense k[5mC]*kT*kT*dT*dA*dA*dT*dT*dT*d[5mC]*dA*dG*dA*kG*kT*k[5mC]) [compound 799936] | 44 |
| 799937 (antisense kT*k[5mC]*kT*dT*dT*dA*dA*dT*dT*dT*d[5mC]*dA*dG*kA*kG*kT) [compound 799937] | 24 |
| 799938 (antisense k[5mC]*kT*k[5mC]*dT*dA*dA*dA*d[5mC]*d[5mC]*dA*dA*d[5mC]*dT*kT*kT*kT) [compound 799938] | 17 |
| 799939 (antisense kG*k[5mC]*kA*dT*dT*dT*dA*dA*dT*dT*dT*dG*d[5mC]*kA*kA*k[5mC]) [compound 799939] | 38 |

Same assay, conditions: Hep3B cells, electroporation with 10,000 nM antisense oligonucleotide, approximately 24 hours, SMAD7 mRNA by RT-PCR (RTS5062), relative to untreated control cells

| Substance | % Inhibition [%] |
| --- | --- |
| 799884 (k[5mC]*kT*k[5mC]*d[5mC]*dA*dG*dT*dT*dT*d[5mC]*dT*dA*dG*kA*kG*kG; antisense) [compound 799884] | 0 |
| 799885 (k[5mC]*k[5mC]*k[5mC]*d[5mC]*dA*d[5mC]*dA*dG*dA*dT*d[5mC]*d[5mC]*dA*kA*k[5mC]*kT; antisense) [compound 799885] | 0 |
| 799886 (antisense kA*k[5mC]*k[5mC]*dA*dA*dG*d[5mC]*dT*dA*d[5mC]*dT*dT*dT*kT*kG*k[5mC]) [compound 799886] | 25 |
| 799887 (antisense k[5mC]*kA*kG*dG*dA*d[5mC]*dA*dG*dT*dT*dT*dT*dT*k[5mC]*k[5mC]*k[5mC]) [compound 799887] | 29 |
| 799888 (antisense kG*kG*kA*d[5mC]*dA*dA*dA*dA*d[5mC]*d[5mC]*d[5mC]*d[5mC]*dT*kA*kG*kA) [compound 799888] | 22 |
| 799889 (antisense kA*kA*kA*dA*dG*dG*dA*d[5mC]*dA*dA*dA*dA*d[5mC]*k[5mC]*k[5mC]*k[5mC]) [compound 799889] | 45 |
| 799890 (antisense k[5mC]*kA*kT*dT*dA*dA*dG*d[5mC]*d[5mC]*dA*dA*dT*dT*kT*kT*k[5mC]) [compound 799890] | 41 |
| 799901 (antisense kA*kG*kT*d[5mC]*dA*dA*dG*dT*d[5mC]*dT*d[5mC]*dT*dT*kA*k[5mC]*k[5mC]) [compound 799901] | 31 |
| 799902 (antisense kG*kG*kA*dA*dG*dA*d[5mC]*dA*d[5mC]*dA*dA*dG*dG*kG*k[5mC]*kT) [compound 799902] | 34 |
| 799903 (antisense kT*kG*k[5mC]*dA*dT*dG*dG*d[5mC]*dA*dT*dT*dG*dT*k[5mC]*kT*kG) [compound 799903] | 34 |
| 799905 (antisense kA*kG*kT*d[5mC]*dG*dA*dA*dT*d[5mC]*dA*dT*dT*dT*k[5mC]*kT*k[5mC]) [compound 799905] | 53 |
| 799906 (antisense k[5mC]*kA*kT*dG*d[5mC]*dA*dG*dT*d[5mC]*dG*dA*dA*dT*k[5mC]*kA*kT) [compound 799906] | 11 |
| 799907 (antisense kA*kG*kT*dA*dA*dA*dG*dG*dG*d[5mC]*d[5mC]*dT*d[5mC]*kT*k[5mC]*kT) [compound 799907] | 10 |
| 799908 (antisense k[5mC]*kA*kT*dA*dA*dT*dA*dT*dT*dG*dA*d[5mC]*dA*kG*kT*kA) [compound 799908] | 41 |
| 799909 (antisense kA*kT*kT*d[5mC]*dA*dT*dA*dA*dT*dA*dT*dT*dG*kA*k[5mC]*kA) [compound 799909] | 36 |
| 799920 (antisense kG*kA*kT*dG*dA*dA*dT*dG*d[5mC]*dT*d[5mC]*d[5mC]*dT*kA*kA*kG) [compound 799920] | 0 |
| 799922 (antisense kA*k[5mC]*kA*d[5mC]*dT*dA*dA*dT*dT*dA*dG*dT*dG*kA*k[5mC]*kT) [compound 799922] | 15 |
| 799923 (antisense kG*k[5mC]*k[5mC]*dT*dA*d[5mC]*dA*dT*dA*dT*dT*dT*d[5mC]*kG*k[5mC]*kA) [compound 799923] | 15 |
| 799924 (antisense k[5mC]*kA*kA*dG*d[5mC]*d[5mC]*dT*dA*d[5mC]*dA*dT*dA*dT*kT*kT*k[5mC]) [compound 799924] | 22 |
| 799925 (antisense k[5mC]*k[5mC]*kA*dA*dG*d[5mC]*d[5mC]*dT*dA*d[5mC]*dA*dT*dA*kT*kT*kT) [compound 799925] | 10 |
| 799926 (antisense k[5mC]*k[5mC]*k[5mC]*dA*dA*dG*d[5mC]*d[5mC]*dT*dA*d[5mC]*dA*dT*kA*kT*kT) [compound 799926] | 17 |
| 799927 (antisense kT*k[5mC]*k[5mC]*d[5mC]*dA*dA*dG*d[5mC]*d[5mC]*dT*dA*d[5mC]*dA*kT*kA*kT) [compound 799927] | 0 |
| 799928 (antisense k[5mC]*kT*k[5mC]*d[5mC]*d[5mC]*dA*dA*dG*d[5mC]*d[5mC]*dT*dA*d[5mC]*kA*kT*kA) [compound 799928] | 7 |
| 799929 (antisense kT*kG*k[5mC]*d[5mC]*d[5mC]*dA*dG*dG*d[5mC]*dT*dT*dG*dG*kT*kT*k[5mC]) [compound 799929] | 9 |
